# Like-named read-outs stand apart in the source and are kept apart here.
# Columns and labels:
# CDK4/cyclin D3 = molecular target: T1, CDK4/cyclin D3 (Homo sapiens, UniProt P11802); test: Human CDK4/cyclin D3 inhibitory activity (QS S Assist CDK4/Cyclin D3_FP Kit, IMAP fluorescence polarization); format: biochemical
# T1 construct: purchased Carna Biosciences, Inc. QS S Assist CDK4/Cyclin D3_FP Kit
# Method in brief: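 Percent inhibition, relative to DMSO with and without enzyme, was curve-fitted to give IC50 from polarization (ex 485, em 535 nm). The 45-min room-temperature reaction used 12.5-25 ng/well enzyme, kit ATP/substrate/metal mix, and HEPES pH 7.4 buffer with Tween20 and DTT, followed by 30-min IMAP binding in the dark.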
# CDK2/cyclin A2 = molecular target: T2, CDK2/cyclin A2 (Homo sapiens, UniProt P24941); test: Human CDK2/cyclin A2 inhibitory activity (QS S Assist CDK2/Cyclin A2_FP Kit, IMAP fluorescence polarization); format: biochemical
# T2 construct: purchased Carna Biosciences, Inc. QS S Assist CDK2/Cyclin A2_FP Kit
# Description: Human CDK2/Cyclin A^2 Inhibitory Activity
# Each compound was analyzed for CDK2/cyclin A2 inhibitory activity with an assay kit (QS S Assist CDK2/Cyclin A2_FP Kit, available from Carna Biosciences, Inc.). This assay kit determines kinase activity on the basis of the IMAP technology by Molecular Devices. Specifically, the kinase activity is determined through quantification of a variation in fluorescent polarization caused by binding of a kinase-phosphorylated fluorescent substance to an IMAP-binding reagent.
# An assay buffer was prepared by 10-fold dilution of the 10× assay buffer attached to the kit with distilled water, and each solution was prepared with the assay buffer. The assay buffer contained 20 mM HEPES (pH 7.4), 0.01% Tween 20, and 2 mM dithiothreitol. A test compound solution was prepared by dilution of the test compound with dimethyl sulfoxide (DMSO) to a concentration 100 times higher than the final concentration and then 25-fold dilution with the assay buffer to a concentration four times higher than the final concentration. An ATP/substrate/Metal solution was prepared by five-fold dilution of the 5×ATP/substrate/Metal solution attached to the kit with the assay buffer. An enzyme solution was prepared by dilution of the CDK2/cyclin A2 attached to the kit with the assay buffer to a concentration twice higher than the final concentration (final concentration of CDK2/cyclin A2: 2.5 ng/well). A detection reagent was prepared by five-fold dilution of 5×IMAP-binding buffer A with distilled water and 400-fold dilution of the IMAP-binding reagent with the diluted buffer.
# The test compound solution (5 μL/well) and the ATP/substrate/Metal solution (5 μL/well) were added to a 384-well plate, and the enzyme solution or the assay buffer (10 μL/well) was added to the plate (total amount of the reaction mixture: 20 μL/well) for initiation of enzymatic reaction. […] The reaction was performed at room temperature for 60 minutes, and the detection reagent (60 μL/well) was then added to the plate, followed by further reaction for 30 minutes at room temperature under light shielding conditions. Subsequently, fluorescent polarization was determined with a microplate reader at an excitation wavelength of 485 nm and an emission wavelength of 535 nm.
# The percent inhibition of enzyme activity was calculated for each test compound (note: enzyme activity=100% in the case of addition of the enzyme solution and addition of DMSO instead of the test compound solution, whereas enzyme activity=0% in the case of addition of the assay buffer instead of the enzyme solution and addition of DMSO instead of the test compound solution). The percent inhibition of enzyme activity was fitted to a dose-response curve, to determine a 50% inhibitory concentration against CDK2/cyclin A2.
# In each table, “+++” corresponds to IC50<10 nM, “++” 10 nM≤IC50<100 nM, and “+” 100 nM≤IC50.
# [1] = Human CDK4/cyclin D3 inhibitory activity, read-out: CDK4 Activity symbol
# [2] = Human CDK2/cyclin A2 inhibitory activity, read-out: CDK2 Activity symbol
# [3] = 50% inhibitory concentration against CDK4/cyclin D3, given as class symbol
# [4] = 50% inhibitory concentration against CDK2/cyclin A2, given as class symbol
# T1 sequence (P11802 whole entry): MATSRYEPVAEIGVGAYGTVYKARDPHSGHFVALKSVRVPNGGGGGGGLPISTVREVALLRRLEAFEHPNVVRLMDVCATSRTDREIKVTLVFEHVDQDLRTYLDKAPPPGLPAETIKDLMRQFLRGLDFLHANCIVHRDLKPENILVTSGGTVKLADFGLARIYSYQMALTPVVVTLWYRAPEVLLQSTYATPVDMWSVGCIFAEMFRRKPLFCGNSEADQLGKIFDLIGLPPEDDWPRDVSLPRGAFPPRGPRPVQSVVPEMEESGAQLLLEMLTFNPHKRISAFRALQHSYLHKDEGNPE
# T1 sequence (P30281 whole entry partner): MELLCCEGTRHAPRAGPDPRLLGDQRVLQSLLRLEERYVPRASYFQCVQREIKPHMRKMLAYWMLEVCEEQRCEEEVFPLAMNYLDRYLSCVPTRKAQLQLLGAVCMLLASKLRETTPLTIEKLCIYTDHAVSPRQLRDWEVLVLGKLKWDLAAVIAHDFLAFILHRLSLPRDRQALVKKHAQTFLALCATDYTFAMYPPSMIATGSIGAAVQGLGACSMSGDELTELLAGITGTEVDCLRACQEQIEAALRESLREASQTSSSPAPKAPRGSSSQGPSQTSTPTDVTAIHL
IC50 (CDK4/cyclin D3; [1]),IC50 (CDK2/cyclin A2; [2]),IC50 (CDK4/cyclin D3; [3]),IC50 (CDK2/cyclin A2; [4]),SMILES
< 10 nM,≥ 100 nM,,,C[C@@H](O)c1cc2cnc(Nc3ccc(CN4CCNCC4)cn3)nc2c(NCC2CCOC2)n1 (some centres unmarked) [Compound 323]
,,10 to 100 nM,≥ 100 nM,CO[C@H](C)c1cc2cnc(Nc3ccc(N4CCN(CC#N)CC4)nn3)nc2c(NC(C)C)n1 [Compound 906]
< 10 nM,≥ 100 nM,,,CC(C)Nc1nc([C@@H](C)O)cc2cnc(Nc3ccc(N4CCN(C=O)CC4=O)cn3)nc12 [Compound 319]
,,< 10 nM,≥ 100 nM,CCCCNc1nc([C@@H](C)O)cc2cnc(Nc3ccc(N4CCNCC4)cn3)nc12 [Compound 922]
< 10 nM,≥ 100 nM,,,CO[C@H](C)c1cc2cnc(Nc3ccc(OCCN4CCOCC4)cn3)nc2c(NC(C)C)n1 [Compound 282]
,,< 10 nM,≥ 100 nM,CC1(c2cc3cnc(Nc4ccc5c(n4)CCN(C(=O)CO)C5)nc3c(N[C@H]3CC[C@H](O)CC3)n2)COC1 [Compound 1146]
,,< 10 nM,≥ 100 nM,CCCNc1nc([C@@H](C)O)cc2cnc(Nc3ccc(CN4CCC(CO)CC4)cn3)nc12 [Compound 1040]
< 10 nM,≥ 100 nM,,,COCC(C)(C)Nc1nc([C@@H](C)O)cc2cnc(Nc3ccc(C(C)N4CCNCC4)cn3)nc12 (some centres unmarked) [Compound 265]
≥ 100 nM,≥ 100 nM,,,CC(C)Nc1nc(C(F)F)cc2cnc(Nc3ccc(NC(=O)CCO)cn3)nc12 [Compound 98]
,,< 10 nM,≥ 100 nM,"CCCNc1nc([C@@H](C)O)cc2cnc(Nc3ccc(CN4CCN(C(C)CO)CC4)cn3)nc12 (single isomer, unassigned) [Compound 1206]"
< 10 nM,10 to 100 nM,,,CC(C)Nc1nc(C(F)F)cc2cnc(Nc3ccc(CN4CCCC(O)C4)cn3)nc12 (centres unmarked) [Compound 128]
< 10 nM,≥ 100 nM,,,FC(F)c1cc2cnc(Nc3ccc(N4CCNCC4)nn3)nc2c(N[C@H]2CCCOC2)n1 [Compound 381]
,,< 10 nM,≥ 100 nM,CCCNc1nc([C@@H](C)OC)cc2cnc(Nc3ccc4c(n3)CCN(C(=O)OCCN(C)C)C4)nc12 [Compound 1133]
,,< 10 nM,≥ 100 nM,CCCNc1nc([C@@H](C)OC)cc2cnc(Nc3ccc4c(n3)CCN(CCO)C4)nc12 [Compound 1119]
< 10 nM,≥ 100 nM,,,COCC(C)(C)Nc1nc([C@@H](C)O)cc2cnc(Nc3ccc(CN4CCCOCC4)cn3)nc12 [Compound 293]
< 10 nM,10 to 100 nM,,,CC(C)Nc1nc(C(F)F)cc2cnc(Nc3ccc(CN4CCNC4=O)cn3)nc12 [Compound 213]
< 10 nM,≥ 100 nM,,,CC(C)Nc1nc([C@@H](C)O)cc2cnc(Nc3ccc(N4CC5(CCNCC5)C4)nn3)nc12 [Compound 575]
< 10 nM,≥ 100 nM,,,COCC(C)(C)Nc1nc([C@@H](C)O)cc2cnc(Nc3ccc(OCCN(C)C)cn3)nc12 [Compound 208]
,,< 10 nM,≥ 100 nM,CN(C)CCOC(=O)N1CCc2nc(Nc3ncc4cc(C5CCOC5)nc(N[C@H]5CCCOC5)c4n3)ccc2C1 (some centres unmarked) [Compound 1136]
,,10 to 100 nM,≥ 100 nM,Cc1cc(Nc2ncc3cc([C@@H](C)O)nc(NC(C)C)c3n2)ncc1CN1CCN(CCO)CC1 [Compound 1055]
,,< 10 nM,≥ 100 nM,CC(C)Nc1nc(C2CCOC2)cc2cnc(Nc3ccc(CN4CCNCC4)cn3)nc12 (centres unmarked) [Compound 881]
< 10 nM,≥ 100 nM,,,C[C@@H](O)c1cc2cnc(Nc3ccc(N4CCNCC4=O)cn3)nc2c(N[C@H]2CC[C@@H](C)CC2)n1 [Compound 624]
< 10 nM,10 to 100 nM,,,CC(C)Nc1nc(C(F)F)cc2cnc(Nc3ccc(CCNS(C)(=O)=O)cn3)nc12 [Compound 151]
,,< 10 nM,≥ 100 nM,CC(C)Nc1nc([C@@H](C)O)cc2cnc(Nc3ccc(N4CCC(C(C)(C)C(=O)O)CC4)nn3)nc12 [Compound 794]
,,< 10 nM,10 to 100 nM,CC(C)Nc1nc([C@@H](C)O)cc2cnc(Nc3ccc(C(=O)N4CCN(CCO)CC4)cn3)nc12 [Compound 1165]

# Reference: patent US10124004B2, “Pyrido[3,4-d]pyrimidine derivative and pharmaceutically acceptable salt thereof” (Teijin Pharma Limited, priority 2015, dated 2018)
